# Data as given in ChEMBL document CHEMBL1201862, “PubChem BioAssay data set” (2004).
#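 Grown in 96-well plates, cells were treated for 48 hours with each compound at five concentrations. Insufficient inhibition: endpoint recorded as highest concentration tested. Here, GI50 denotes the concentration required for 50% inhibition of growth.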 Activity calls are given as the source filed them. Rule as the data show it: active = GI50 up to about 1.1 µM and inactive = higher.
# Columns and labels:
# Test in all cases: inhibition of tumour cell growth, NCI panel, 48 h
# [1] = system: IGROV-1
# [2] = system: BT-549
# [3] = system: RPMI-8226
# [4] = system: HCC 2998
# [5] = system: NCI-H23
# [6] = system: HCT-116
# [7] = system: COLO 205
# [8] = system: SK-MEL-28
# [9] = system: SK-MEL-5
# [10] = system: SNB-19
# [11] = system: 786-0
# [12] = system: SK-MEL-2
# [13] = system: A549
# [14] = system: K562
# [15] = system: MDA-MB-231
# [16] = system: M14
# [17] = system: HOP-62
# [18] = system: MOLT-4
# [19] = system: NCI-H460
# [20] = system: SF-295
# [21] = system: PC-3
# [22] = system: NCI/ADR-RES
# [23] = system: U-251
# [24] = system: CAKI-1
# [25] = system: Hs-578T
# [26] = system: KM12
# [27] = system: TK-10
# [28] = system: OVCAR-8
# [29] = system: HCT-15
# [30] = system: UO-31
# [31] = system: HOP-92
# [32] = system: SR
# [33] = system: MCF7
# [34] = system: MDA-MB-435
# [35] = system: LOX IMVI
# [36] = system: UACC-62
# [37] = system: OVCAR-4
# [38] = system: ACHN
# [39] = system: SF-539
# [40] = system: T47D
# [41] = system: DU-145
# [42] = system: HL-60
# [43] = system: SNB-75
# [44] = system: NCI-H522
# [45] = system: NCI-H226
# [46] = system: RXF 393
# [47] = system: UACC-257
# [48] = system: OVCAR-5
# [49] = system: OVCAR-3
# [50] = system: SN12C
# [51] = system: HT-29
# [52] = system: SW-620
# [53] = system: CCRF-CEM
# [54] = system: EKVX
# [55] = system: SK-OV-3
# [56] = system: SF-268
# [57] = system: A498
# [58] = system: Malme-3M
smiles,measurement,setting,value
CC1=NN(c2nc(N)nc(COCc3nc(N)nc(N4N=C(C)CC4(C)C)n3)n2)C(C)(C)C1,GI50,[1],> 100 µM (inactive)
same,GI50,[2],> 100 µM (inactive)
same,GI50,[3],> 100 µM (inactive)
same,GI50,[4],> 100 µM (inactive)
same,GI50,[5],> 100 µM (inactive)
same,GI50,[6],> 100 µM (inactive)
same,GI50,[7],> 100 µM (inactive)
same,GI50,[8],> 100 µM (inactive)
same,GI50,[9],> 100 µM (inactive)
same,GI50,[10],> 100 µM (inactive)
same,GI50,[11],> 100 µM (inactive)
same,GI50,[12],> 100 µM (inactive)
same,GI50,[13],> 100 µM (inactive)
same,GI50,[14],> 100 µM (inactive)
same,GI50,[15],> 100 µM (inactive)
same,GI50,[16],> 100 µM (inactive)
same,GI50,[17],> 100 µM (inactive)
same,GI50,[18],> 100 µM (inactive)
same,GI50,[19],> 100 µM (inactive)
same,GI50,[20],> 100 µM (inactive)
same,GI50,[21],> 100 µM (inactive)
same,GI50,[22],> 100 µM (inactive)
same,GI50,[23],> 100 µM (inactive)
same,GI50,[24],> 100 µM (inactive)
same,GI50,[25],> 100 µM (inactive)
same,GI50,[26],> 100 µM (inactive)
same,GI50,[27],> 100 µM (inactive)
same,GI50,[28],> 100 µM (inactive)
same,GI50,[29],> 100 µM
same,GI50,[30],> 100 µM (inactive)
same,GI50,[31],> 100 µM (inactive)
same,GI50,[32],> 100 µM (inactive)
same,GI50,[33],> 100 µM (inactive)
same,GI50,[34],> 100 µM (inactive)
same,GI50,[35],> 100 µM (inactive)
same,GI50,[36],> 100 µM (inactive)
same,GI50,[37],> 100 µM (inactive)
same,GI50,[38],> 100 µM (inactive)
same,GI50,[39],> 100 µM (inactive)
same,GI50,[40],> 100 µM (inactive)
same,GI50,[41],> 100 µM (inactive)
same,GI50,[42],> 100 µM (inactive)
same,GI50,[43],> 100 µM (inactive)
same,GI50,[44],> 100 µM (inactive)
same,GI50,[45],> 100 µM (inactive)
same,GI50,[46],> 100 µM (inactive)
same,GI50,[47],> 100 µM (inactive)
same,GI50,[48],> 100 µM (inactive)
same,GI50,[49],> 100 µM (inactive)
same,GI50,[50],> 100 µM (inactive)
same,GI50,[51],> 100 µM (inactive)
same,GI50,[52],> 100 µM (inactive)
same,GI50,[53],> 100 µM (inactive)
same,GI50,[54],> 100 µM (inactive)
same,GI50,[55],> 100 µM (inactive)
same,GI50,[56],> 100 µM (inactive)
same,GI50,[57],> 100 µM (inactive)
COC(=O)C1=C(C)NC2(O)C=CC(=O)C3C(=O)N(c4ccccc4)C(=O)C132 (stereo unspecified),GI50,[1],> 100 µM (inactive)
same,GI50,[2],64.1 µM (inactive)
same,GI50,[3],36.2 µM (inactive)
same,GI50,[4],98.2 µM (inactive)
same,GI50,[5],> 100 µM (inactive)
same,GI50,[6],73.6 µM (inactive)
same,GI50,[7],36.5 µM (inactive)
same,GI50,[8],32.5 µM (inactive)
same,GI50,[9],> 100 µM (inactive)
same,GI50,[10],> 100 µM (inactive)
same,GI50,[11],98.2 µM (inactive)
same,GI50,[12],> 100 µM (inactive)
same,GI50,[13],> 100 µM (inactive)
same,GI50,[14],48.2 µM (inactive)
same,GI50,[15],> 100 µM (inactive)
same,GI50,[16],43.1 µM (inactive)
same,GI50,[17],> 100 µM (inactive)
same,GI50,[58],37.8 µM (inactive)
same,GI50,[18],90.6 µM (inactive)
same,GI50,[19],> 100 µM (inactive)
same,GI50,[20],> 100 µM (inactive)
same,GI50,[21],> 100 µM (inactive)
same,GI50,[22],> 100 µM (inactive)
same,GI50,[23],> 100 µM (inactive)
same,GI50,[24],> 100 µM (inactive)
same,GI50,[25],> 100 µM (inactive)
same,GI50,[26],> 100 µM (inactive)
same,GI50,[27],> 100 µM (inactive)
same,GI50,[28],> 100 µM (inactive)
same,GI50,[29],63 µM
same,GI50,[30],> 100 µM (inactive)
same,GI50,[31],37.3 µM (inactive)
same,GI50,[32],76.4 µM (inactive)
same,GI50,[33],> 100 µM (inactive)
same,GI50,[34],64.7 µM (inactive)
same,GI50,[35],67.3 µM (inactive)
same,GI50,[36],97.1 µM (inactive)
same,GI50,[37],> 100 µM (inactive)
same,GI50,[38],> 100 µM (inactive)
same,GI50,[39],> 100 µM (inactive)
same,GI50,[40],36.8 µM (inactive)
same,GI50,[41],> 100 µM (inactive)
same,GI50,[42],63.8 µM (inactive)
same,GI50,[43],> 100 µM (inactive)
same,GI50,[44],32.5 µM (inactive)
same,GI50,[45],> 100 µM (inactive)
same,GI50,[46],83.4 µM (inactive)
same,GI50,[47],90.8 µM (inactive)
same,GI50,[48],61.2 µM (inactive)
same,GI50,[49],66.1 µM (inactive)
same,GI50,[50],> 100 µM (inactive)
same,GI50,[51],23.3 µM (inactive)
same,GI50,[52],56.5 µM (inactive)
same,GI50,[53],35 µM (inactive)
same,GI50,[54],> 100 µM (inactive)
same,GI50,[55],> 100 µM (inactive)
same,GI50,[56],> 100 µM (inactive)
same,GI50,[57],> 100 µM (inactive)
O=C(CCc1ccccc1CO)NCCc1ccccc1,GI50,[1],> 100 µM (inactive)
same,GI50,[2],> 100 µM (inactive)
same,GI50,[3],> 100 µM (inactive)
same,GI50,[4],> 100 µM (inactive)
same,GI50,[5],> 100 µM (inactive)
same,GI50,[6],> 100 µM (inactive)
same,GI50,[7],> 100 µM (inactive)
same,GI50,[8],> 100 µM (inactive)
same,GI50,[9],> 100 µM (inactive)
same,GI50,[10],15.9 µM (inactive)
same,GI50,[11],> 100 µM (inactive)
same,GI50,[12],> 100 µM (inactive)
same,GI50,[13],> 100 µM (inactive)
same,GI50,[14],> 100 µM (inactive)
same,GI50,[15],> 100 µM (inactive)
same,GI50,[16],> 100 µM (inactive)
same,GI50,[17],> 100 µM (inactive)
same,GI50,[18],> 100 µM (inactive)
same,GI50,[19],> 100 µM (inactive)
same,GI50,[20],> 100 µM (inactive)
same,GI50,[21],> 100 µM (inactive)
same,GI50,[22],> 100 µM (inactive)
same,GI50,[23],> 100 µM (inactive)
same,GI50,[24],> 100 µM (inactive)
same,GI50,[25],20 µM (inactive)
same,GI50,[26],> 100 µM (inactive)
same,GI50,[27],> 100 µM (inactive)
same,GI50,[28],> 100 µM (inactive)
same,GI50,[29],> 100 µM
same,GI50,[30],36.5 µM (inactive)
same,GI50,[31],> 100 µM (inactive)
same,GI50,[32],> 100 µM (inactive)
same,GI50,[33],> 100 µM (inactive)
same,GI50,[34],> 100 µM (inactive)
same,GI50,[36],> 100 µM (inactive)
same,GI50,[37],59.6 µM (inactive)
same,GI50,[38],> 100 µM (inactive)
same,GI50,[39],> 100 µM (inactive)
same,GI50,[40],> 100 µM (inactive)
same,GI50,[41],> 100 µM (inactive)
same,GI50,[42],72.4 µM (inactive)
same,GI50,[43],49.1 µM (inactive)
same,GI50,[44],> 100 µM (inactive)
same,GI50,[45],> 100 µM (inactive)
same,GI50,[46],> 100 µM (inactive)
same,GI50,[47],> 100 µM (inactive)
same,GI50,[48],> 100 µM (inactive)
same,GI50,[49],> 100 µM (inactive)
same,GI50,[50],> 100 µM (inactive)
same,GI50,[51],> 100 µM (inactive)
same,GI50,[52],> 100 µM (inactive)
same,GI50,[53],> 100 µM (inactive)
same,GI50,[54],> 100 µM (inactive)
same,GI50,[55],> 100 µM (inactive)
same,GI50,[56],> 100 µM (inactive)
same,GI50,[57],> 100 µM (inactive)
